In patent US12679839B2, “Cyclin-dependent kinase 7 (CDK7) non-covalent inhibitors” (JANSSEN PHARMACEUTICA NV, priority 2020, dated 2026):

What was measured:
[1] = tested on: RNA polymerase II Serine 5 phosphorylation (Rpb1 CTD), downstream substrate of CDK7; assay: Imaging-based cellular RNA PolII Ser5 phosphorylation assay in A549 cells; type: cell-based, human; conditions: Homo sapiens, A549, 3 h, challenged with compound for 3 hours, read-out: pRNA polII Ser5 (A549) pIC50 (converted)
Procedure, shortened: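 A549 cells seeded 20 h in DMEM with 1% FBS, then exposed to compound for 3 h at 37 °C; fixed, methanol-permeabilized and immunostained for phospho-Rpb1 CTD Ser5, read by automated imaging. Signal normalized to DMSO (high) and 10 μM LDC4297 (low) controls; IC50 from four-parameter fit of % control vs concentration.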

[2] = molecular target: T1, CDK7/Cyclin H/MAT-1 complex (Homo sapiens, UniProt P50613); assay: Flint assay, end-point fluorescence (5 nM CDK7/Cyclin H/MAT-1 complex); type: biochemical; conditions: for IC50: read-out: CDK7 (5 nM) pIC50 (converted)
T1 construct: Human CDK7 (amino acids 1-346); His6 (N); TEV protease cleavage site (N); made in house; host or cells: baculovirus-SF9 insect cells
Method: Human CDK7 (amino acids 1-346) containing an N-terminal His6-tag followed by a tobacco etch virus (TEV) protease cleavage site, human MAT1 (amino acids 1-309) and human cyclin H (amino acids 1-323) were co-expressed in the baculovirus-SF9 insect cell expression system to generate a trimeric complex. Cell pellets were collected 72 h post-infection and were resuspended by Dounce homogenization in 20 mM Hepes-NaOH (pH 8.0), 300 mM NaCl, 10% glycerol, 2 mM dithiothreitol DTT), and 20 mM Imidazole supplemented with cOmplete™ Protease Inhibitor Cocktail (Roche) and 25 U/mL Benzonase® Nuclease HC according to the manufacturer's instructions. Cells were lysed by passing through a Microfluidics M110Y Microfluidizer 3 times at 600 kPa followed by centrifugation at 38,000×g at 4° C. for 1 hour. The supernatant was loaded onto a pre-equilibrated HisTrap HP column and eluted in 20 mM Hepes-NaOH (pH 8.0), 50 mM NaCl, 10% glycerol, 2 mM DTT, and 400 mM Imidazole. The eluate was further purified by gel filtration on a Superdex S200 16/60 column and eluted with 20 mM Hepes-NaOH (pH 7.5), 50 mM NaCl, 10% Glycerol, 2 mM DTT. Fractions containing a trimeric complex of CDK7, cyclin H, and MAT1 in a 1:1:1 ratio were pooled and concentrated to 3 mg/mL in a 10 kDa MWCO concentrator, and diluted to a final concentration of 1.6 mg/mL in 11.1 mM Hepes-NaOH (pH 8.0), 27.8 mM NaCl, 1.1 mM DTT and 50% glycerol.
Compounds with potencies approaching the limit of detection of the assay (IC50≤10 nM) were further assessed in a more sensitive fluorescence end-point assay.
[formula] where νo is the rate in the absence of inhibitor, νmin is the rate at highest inhibitor concentration, and h is the Hill coefficient. Flint Assay (5 nM CDK7/Cyclin H/MAT-1 Complex)
The continuous absorbance assay was converted to an end-point fluorescence assay following the NADH fluorescence signal decrease at the excitation and emission wavelengths of 340 nm and 440 nm, respectively.
Under the same concentrations of substrates and coupling reagents used in the absorbance assay, the fluorescence assay was performed at a reduced concentration of the CDK7/Cyclin H/MAT-1 complex of 5 nM (final concentration) with a reaction time of 24 hours. The percent of inhibition was calculated by the following equation. Percent of inhibition=(Sample−NC)/(PC−NC)*100 where NC is the mean if negative control (reaction without inhibitor), and PC is the mean of positive control (reaction with complete inhibition).
Dosing curves were fitted using the following equation to obtain IC50: Y=Bottom+(Top−Bottom)/(1+10^((log IC50−X)*Hill slope)) where X=log10 of the compound concentration; top and bottom can be defined by PC and NC respectively. Imaging-Based Cellular RNA PolII Ser5 Phosphorylation Assay

T1 sequence (P50613 whole entry, the tested form may be a part): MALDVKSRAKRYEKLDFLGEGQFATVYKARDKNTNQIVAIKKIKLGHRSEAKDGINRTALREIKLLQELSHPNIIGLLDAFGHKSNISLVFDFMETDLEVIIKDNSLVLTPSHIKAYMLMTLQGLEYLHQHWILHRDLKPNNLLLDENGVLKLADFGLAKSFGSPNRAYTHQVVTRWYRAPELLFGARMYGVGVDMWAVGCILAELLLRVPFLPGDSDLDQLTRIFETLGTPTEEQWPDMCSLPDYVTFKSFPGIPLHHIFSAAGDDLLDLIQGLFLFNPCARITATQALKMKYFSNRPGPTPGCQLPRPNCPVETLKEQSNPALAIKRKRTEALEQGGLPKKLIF
T1 sequence (P51946 whole entry partner, the tested form may be a part): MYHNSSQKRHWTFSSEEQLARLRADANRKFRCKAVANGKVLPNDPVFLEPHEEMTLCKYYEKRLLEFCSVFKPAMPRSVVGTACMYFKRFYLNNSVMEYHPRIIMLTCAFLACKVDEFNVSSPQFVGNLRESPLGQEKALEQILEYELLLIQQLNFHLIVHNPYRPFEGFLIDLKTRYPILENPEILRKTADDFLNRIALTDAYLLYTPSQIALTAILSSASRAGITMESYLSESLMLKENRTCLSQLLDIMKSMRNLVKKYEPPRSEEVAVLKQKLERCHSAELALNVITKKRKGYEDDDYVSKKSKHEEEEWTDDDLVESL
T1 sequence (P51948 whole entry partner, the tested form may be a part): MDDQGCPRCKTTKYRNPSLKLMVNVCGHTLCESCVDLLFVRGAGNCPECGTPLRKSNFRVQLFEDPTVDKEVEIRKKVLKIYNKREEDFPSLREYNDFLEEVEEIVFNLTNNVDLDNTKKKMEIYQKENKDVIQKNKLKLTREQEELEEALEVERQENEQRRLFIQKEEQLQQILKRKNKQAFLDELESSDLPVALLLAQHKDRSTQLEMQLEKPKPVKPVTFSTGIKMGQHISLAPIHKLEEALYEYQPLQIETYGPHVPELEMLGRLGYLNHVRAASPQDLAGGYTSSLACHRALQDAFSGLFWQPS

Row | Compound | IC50 [1] [nM] | CDK7 (5 nM) pIC50 [2] | IC50 [2] [nM]
1 | C[C@@H]1Cc2cnc(Nc3cnn4c3CCCC4)nc2CN1C(=O)[C@H]1CCN(C)C[C@@H]1c1ccccc1 [Compound 77] | 316 | 7.88 | –
2 | CCn1ccc(CNc2ncc3c(n2)CN(C(=O)[C@H]2CCN(C)C[C@@H]2c2ccccc2)[C@H](C)C3)n1 [Compound 58] | 22.9 | 8.63 | –
3 | C[C@@H]1Cc2cnc(NCC3CCS(=O)(=O)C3)nc2CN1C(=O)[C@H]1CCN(C)C[C@@H]1c1ccccc1 (stereo partly drawn) [Compound 49] | > 10000 | 7.2 | –
4 | C[C@@H]1Cc2cnc(NC3CCC(OC(F)F)CC3)nc2CN1C(=O)[C@H]1CCN(C)C[C@@H]1c1ccccc1 (stereo partly drawn) [Compound 69] | 58.9 | 8.57 | –
5 | C[C@@H]1Cc2cnc(N[C@H](C)c3ccccc3)nc2CN1C(=O)[C@H]1CCN(C)C[C@@H]1c1ccccc1 [Compound 22] | ~14.1 | 8.19 | –
6 | C[C@@H]1Cc2cnc(NCc3ccn(C)c3)nc2CN1C(=O)[C@H]1CCN(C)C[C@@H]1c1ccccc1 [Compound 60] | 214 | – | 3.55
7 | C[C@@H]1Cc2cnc(NC3CCN(CC(F)(F)F)CC3)nc2CN1C(=O)[C@H]1CCN(C)C[C@@H]1c1ccccc1 [Compound 45] | 437 | 7.65 | –
8 | Cc1cc(Nc2ncc3c(n2)CN(C(=O)[C@H]2CCN(C)C[C@@H]2c2ccccc2)[C@H](C)C3)ccn1 [Compound 78] | ~57.5 | 8.37 | –
9 | C[C@@H]1Cc2cnc(Nc3cnn(CC(C)(C)O)c3)nc2CN1C(=O)[C@H]1CCN(C)C[C@@H]1c1ccccc1 [Compound 74] | 178 | 8.0 | –
10 | C[C@@H]1Cc2cnc(N[C@@H]3CCOC(C)(C)C3)nc2CN1C(=O)[C@H]1CCN(C)C[C@@H]1c1ccccc1 (relative stereo) [Compound 40] | ~52.5 | – | 7.24
11 | C[C@@H]1Cc2cnc(NCc3cnn(C)c3)nc2CN1C(=O)[C@H]1CCN(C)C[C@@H]1c1ccccc1 [Compound 57] | 2950 | 7.53 | –
12 | CO[C@]1(C)CC[C@@H](Nc2ncc3c(n2)CN(C(=O)[C@H]2CCN(C)C[C@@H]2c2ccccc2)[C@H](C)C3)CC1 [Compound 10] | 158 | 8.11 | –
13 | C[C@@H]1Cc2cnc(N[C@H]3CCOC4(CCC4)C3)nc2CN1C(=O)[C@H]1CCN(C)C[C@@H]1c1ccccc1 (relative stereo) [Compound 9] | 309 | – | 6.17
14 | Cc1cc(CNc2ncc3c(n2)CN(C(=O)[C@H]2CCN(C)C[C@@H]2c2ccccc2)[C@H](C)C3)nn1C [Compound 65] | 6610 | 7.33 | –
15 | C[C@@H]1Cc2cnc(NCc3cc(C(F)F)n(C)n3)nc2CN1C(=O)[C@H]1CCN(C)C[C@@H]1c1ccccc1 [Compound 56] | 5130 | 7.44 | –
16 | C[C@@H]1Cc2cnc(N[C@@H]3CCOC4(CCC4)C3)nc2CN1C(=O)[C@H]1CCN(C)C[C@@H]1c1ccccc1 (relative stereo) [Compound 8] | 69.2 | – | 2.69
17 | CO[C@H]1CC[C@H](Nc2ncc3c(n2)CN(C(=O)[C@H]2CCN(C)C[C@@H]2c2ccccc2)[C@H](C)C3)CC1 [Compound 37] | ~33.9 | 8.6 | –
18 | C[C@@H]1Cc2cnc(NCc3cc[nH]n3)nc2CN1C(=O)[C@H]1CCN(C)C[C@@H]1c1ccccc1 [Compound 51] | 1320 | – | 8.32
19 | Cc1ccc(CNc2ncc3c(n2)CN(C(=O)[C@H]2CCN(C)C[C@@H]2c2ccccc2)[C@H](C)C3)o1 [Compound 50] | 72.4 | 8.05 | –

The next lines start with the values.

Row | IC50 [1] [nM] | CDK7 (5 nM) pIC50 [2] | IC50 [2] [nM] | Compound
20 | 209 | 8.48 | – | C[C@@H]1Cc2cnc(NC3CCN(S(C)(=O)=O)CC3)nc2CN1C(=O)N1CCN(C)C[C@@H]1c1ccccc1 [Compound 209]
21 | 35.5 | – | 2.63 | C[C@H]1Cc2cnc(NCc3ccn(C)n3)cc2CN1C(=O)[C@H]1CCN(C)C[C@@H]1c1ccccc1 (relative stereo) [Compound 174]
22 | ~19.5 | 8.16 | – | CO[C@H]1CC[C@H](Nc2ncc3c(n2)CN(C(=O)[C@H]2CCN(C)C[C@@H]2c2ccccc2)[C@H]2C[C@@H]32)CC1 [Compound 201]
23 | 110 | 8.48 | – | C[C@@H]1Cc2cnc(NC3CCN(S(=O)(=O)C4CC4)CC3)nc2CN1C(=O)N1CCN(C)C[C@@H]1c1ccccc1 [Compound 210]
24 | ~46.8 | 8.67 | – | C[C@@H]1Cc2cnc(Nc3cnn(C)c3)nc2CN1C(=O)[C@H]1CCN(C)C[C@@H]1c1ccccc1 [Compound 82]
25 | 5010 | 7.57 | – | C[C@@H]1Cc2cnc(NC(C)(C)c3cnn(C)c3)nc2CN1C(=O)[C@H]1CCN(C)C[C@@H]1c1ccccc1 [Compound 90]
26 | ~3.89 | – | 3.72 | Cc1cccc([C@H]2CN(C)CC[C@@H]2C(=O)N2Cc3nc(Nc4cnn(C)c4)ncc3C[C@H]2C)c1 (relative stereo) [Compound 126]
27 | 537 | 8.2 | – | C[C@@H]1Cc2cnc(NCc3ccccc3)nc2CN1C(=O)[C@H]1CCN(CC2COC2)C[C@@H]1c1ccccc1 (single isomer, unassigned) [Compound 155]
28 | ~4270 | 7.41 | – | CN1CC[C@H](C(=O)N2Cc3nc(NCc4ccn(C)n4)ncc3CC2(C)C)[C@@H](c2ccccc2)C1 (single isomer, unassigned) [Compound 191]
29 | ~63.1 | 8.5 | – | C[C@@H]1Cc2cnc(NC3CCOCC3)nc2CN1C(=O)[C@H]1CCN(C)C[C@@H]1c1ccc(Cl)c(F)c1 [Compound 122b]
30 | 2290 | 7.78 | – | C[C@@H]1Cc2cnc(Nc3ccnn3C)nc2CN1C(=O)[C@H]1CCN(C)C[C@@H]1c1ccccc1 [Compound 79]
31 | 1700 | – | 19.5 | Cc1ccc([C@@H]2CN(C)CC[C@H]2C(=O)N2Cc3nc(NC4CCOCC4)ncc3C[C@H]2C)cn1 (relative stereo) [Compound 108]
32 | 5750 | 6.95 | – | C[C@@H]1Cc2cnc(NC3CCOCC3)nc2CN1C(=O)[C@@H]1CC[C@@H](N(C)C)CN1c1ccccc1 (mixture of isomers) [Compound 167]
33 | 148 | – | 5.37 | Cc1cccc([C@H]2CN(C)CC[C@@H]2C(=O)N2Cc3nc(Nc4cnn(C)c4)ncc3[C@@H]3C[C@@H]32)c1 (relative stereo) [Compound 203]
34 | ~51.3 | 7.85 | – | Cc1cccc([C@H]2CN(C(C)C)CC[C@@H]2C(=O)N2Cc3nc(NC4CCOCC4)ncc3C[C@H]2C)c1 [Compound 166]
35 | 182 | – | 4.79 | C[C@H]1Cc2cnc(NC3CCOCC3)nc2CN1C(=O)N1CCN(C)C[C@H]1c1cccc(F)c1 (relative stereo) [Compound 212]
36 | 1380 | 6.9 | – | C[C@@H]1Cc2cnc(NCc3ccn(C)n3)nc2CN1C(=O)N1CCN(C)C[C@@H]1c1ccccc1 [Compound 213]
37 | 269 | 8.17 | – | C[C@@H]1Cc2cnc(NC3CCOCC3)nc2CN1C(=O)N1CCN(C)C[C@@H]1c1ccccc1 [Compound 204a]
38 | 2880 | 6.84 | – | CO[C@H]1CC[C@H](Nc2ncc3c(n2)CN(C(=O)[C@H]2CCN(C)C[C@@H]2c2ccccc2)C2(CC2)C3)CC1 [Compound 192]
39 | 166 | 8.13 | – | C[C@H]1Cc2cnc(NC3(c4ccccc4)COC3)cc2CN1C(=O)[C@H]1CCN(C)C[C@@H]1c1ccccc1 (single isomer, unassigned) [Compound 175]
